# Where two headings read alike, the source gives them in different places.
# Columns and labels:
# [1] = Equilibrium (apparent) solubility of APR, shake flask method; format: physicochemical; settings: for solubility at 24 h: thermodynamic from solid
# Procedure: The solubility of APR in various buffers, oils, surfactants, cosurfactants, cosolvents, and formulations was measured using the shake flask method. Briefly, an excess APR was added into a polypropylene tube that contains a medium. Tube mixed by a vortex (Daihan VM-10, South Korea) for 1 min to disperse APR. Mixtures were shaken at 100 rpm for 24 h at various temperatures in a thermostatically controlled shaking water bath (Nüve ST30, Turkey). Mixtures were then centrifuged at 13,500 rpm (12,225× g) for 15 min. The supernatant samples were suitably diluted with the mobile phase. Drug concentration was obtained via the validated HPLC method.
# Saturated SNEDDS were prepared by adding excess APR into blank preconcentrates and then precipitate the insoluble part of APR. Briefly, SNEDDS and excess APR mixtures were shaken at 100 rpm for 24 h at 37 °C in a shaking water bath. Mixtures were then centrifuged at 13,500 rpm (12,225× g) for 15 min. The supernatant was separated carefully to obtain saturated SNEDDS.
# [2] = cited from earlier work
# [3] = cited from earlier work; remark: listed apart in the source
compound,measurement,setting,value
"C[C@@H](O[C@H]1OCCN(Cc2nc(=O)[nH][nH]2)[C@H]1c1ccc(F)cc1)c1cc(C(F)(F)F)cc(C(F)(F)F)c1 [APR, 5-(((2R,3S)-2-((1R)-1-(3,5-bis(trifluoromethyl)phenyl)ethoxy)-3-(4-fluorophenyl)4-morpholinyl)methyl)-1,2-dihydro-3H-1,2,4-triazol-3-one]",solubility at 24 h,"[1]; 37 °C, organic solvent or mixture, Imwitor 988:Kolliphor RH40:Transcutol P (%) 20:60:20, 37 °C, read-out: APR solubility (loading capacity of SNEDDS preconcentrate)",21600 µg/mL
same,solubility at 24 h,"[1]; 37 °C, organic solvent or mixture, Imwitor 988:Kolliphor RH40:Transcutol P (%) 30:10:60, 37 °C, read-out: APR solubility (loading capacity of SNEDDS preconcentrate)",55300 µg/mL
same,solubility at 24 h,"[1]; Brij O10 (surfactant), 25 °C, aqueous with cosolvent or surfactant or cyclodextrin, surfactant Brij O10, 25 °C, read-out: APR solubility",9870 µg/mL
same,solubility at 24 h,"[1]; Capryol 90 (cosurfactant), 25 °C, organic solvent or mixture, cosurfactant Capryol 90, 25 °C, read-out: APR solubility",17000 µg/mL
same,solubility at 24 h,"[1]; Castor oil (oily excipient), 25 °C, oil or lipid, oily excipient Castor oil, 25 °C, read-out: APR solubility",2920 µg/mL
same,solubility at 24 h,"[1]; Cinnamon oil (oily excipient), 25 °C, oil or lipid, oily excipient Cinnamon oil, 25 °C, read-out: APR solubility",8470 µg/mL
same,solubility at 24 h,"[1]; Eucalyptus oil (oily excipient), 25 °C, oil or lipid, oily excipient Eucalyptus oil, 25 °C, read-out: APR solubility",6840 µg/mL
same,solubility at 24 h,"[1]; Glycerine (cosolvent), 25 °C, organic solvent or mixture, cosolvent Glycerine, 25 °C, read-out: APR solubility",13 µg/mL
same,solubility at 24 h,"[1]; Imwitor 988 (oily excipient), 25 °C, oil or lipid, oily excipient Imwitor 988, 25 °C, read-out: APR solubility",19800 µg/mL
same,solubility at 24 h,"[1]; Kolliphor ELP (surfactant), 25 °C, aqueous with cosolvent or surfactant or cyclodextrin, surfactant Kolliphor ELP, 25 °C, read-out: APR solubility",4230 µg/mL
same,solubility at 24 h,"[1]; Kolliphor HS15 (surfactant), 25 °C, aqueous with cosolvent or surfactant or cyclodextrin, surfactant Kolliphor HS15, 25 °C, read-out: APR solubility",7160 µg/mL
same,solubility at 24 h,"[1]; Kolliphor RH40 (surfactant), 25 °C, aqueous with cosolvent or surfactant or cyclodextrin, surfactant Kolliphor RH40, 25 °C, read-out: APR solubility",8980 µg/mL
same,solubility at 24 h,"[1]; Kollisolv GTA (oily excipient), 25 °C, oil or lipid, oily excipient Kollisolv GTA, 25 °C, read-out: APR solubility",3150 µg/mL
same,solubility at 24 h,"[1]; Kollisolv P124 (surfactant), 25 °C, aqueous with cosolvent or surfactant or cyclodextrin, surfactant Kollisolv P124, 25 °C, read-out: APR solubility",10700 µg/mL
same,solubility at 24 h,"[1]; Labrafac PG (oily excipient), 25 °C, oil or lipid, oily excipient Labrafac PG, 25 °C, read-out: APR solubility",427 µg/mL
same,solubility at 24 h,"[1]; Labrafac lipophile WL 1349 (oily excipient), 25 °C, oil or lipid, oily excipient Labrafac lipophile WL 1349, 25 °C, read-out: APR solubility",282 µg/mL
same,solubility at 24 h,"[1]; Labrafil M 1944 CS (surfactant), 25 °C, aqueous with cosolvent or surfactant or cyclodextrin, surfactant Labrafil M 1944 CS, 25 °C, read-out: APR solubility",3500 µg/mL
same,solubility at 24 h,"[1]; Labrafil M 2125 CS (surfactant), 25 °C, aqueous with cosolvent or surfactant or cyclodextrin, surfactant Labrafil M 2125 CS, 25 °C, read-out: APR solubility",2840 µg/mL
same,solubility at 24 h,"[1]; Labrasol (surfactant), 25 °C, aqueous with cosolvent or surfactant or cyclodextrin, surfactant Labrasol, 25 °C, read-out: APR solubility",15900 µg/mL
same,solubility at 24 h,"[1]; Lauroglycol 90 (cosurfactant), 25 °C, organic solvent or mixture, cosurfactant Lauroglycol 90, 25 °C, read-out: APR solubility",9320 µg/mL
same,solubility at 24 h,"[1]; Lauroglycol FCC (cosurfactant), 25 °C, organic solvent or mixture, cosurfactant Lauroglycol FCC, 25 °C, read-out: APR solubility",14200 µg/mL
same,solubility at 24 h,"[1]; Lemon oil (oily excipient), 25 °C, oil or lipid, oily excipient Lemon oil, 25 °C, read-out: APR solubility",3090 µg/mL
same,solubility at 24 h,"[1]; Maisine CC (oily excipient), 25 °C, oil or lipid, oily excipient Maisine CC, 25 °C, read-out: APR solubility",5360 µg/mL
same,solubility at 24 h,"[1]; Miglyol 812 (oily excipient), 25 °C, oil or lipid, oily excipient Miglyol 812, 25 °C, read-out: APR solubility",299 µg/mL
same,solubility at 24 h,"[1]; Miglyol 840 (oily excipient), 25 °C, oil or lipid, oily excipient Miglyol 840, 25 °C, read-out: APR solubility",1590 µg/mL
same,solubility at 24 h,"[1]; Oleic acid (oily excipient), 25 °C, oil or lipid, oily excipient Oleic acid, 25 °C, read-out: APR solubility",8480 µg/mL
same,solubility at 24 h,"[1]; Olive Yağı (oily excipient), 25 °C, oil or lipid, oily excipient Olive Yağı, 25 °C, read-out: APR solubility",181 µg/mL
same,solubility at 24 h,"[1]; PEG 200 (cosolvent), 25 °C, organic solvent or mixture, cosolvent PEG 200, 25 °C, read-out: APR solubility",11700 µg/mL
same,solubility at 24 h,"[1]; PEG 400 (cosolvent), 25 °C, organic solvent or mixture, cosolvent PEG 400, 25 °C, read-out: APR solubility",12000 µg/mL
same,solubility at 24 h,"[1]; Peceol (oily excipient), 25 °C, oil or lipid, oily excipient Peceol, 25 °C, read-out: APR solubility",7780 µg/mL
same,solubility at 24 h,"[1]; Peppermint oil (oily excipient), 25 °C, oil or lipid, oily excipient Peppermint oil, 25 °C, read-out: APR solubility",16600 µg/mL
same,solubility at 24 h,"[1]; Plurol Oleique CC 497 (cosurfactant), 25 °C, organic solvent or mixture, cosurfactant Plurol Oleique CC 497, 25 °C, read-out: APR solubility",4140 µg/mL
same,solubility at 24 h,"[1]; Propylene glycol (cosolvent), 25 °C, organic solvent or mixture, cosolvent Propylene glycol, 25 °C, read-out: APR solubility",8380 µg/mL
same,solubility at 24 h,"[1]; Sesame oil (oily excipient), 25 °C, oil or lipid, oily excipient Sesame oil, 25 °C, read-out: APR solubility",2230 µg/mL
same,solubility at 24 h,"[1]; Transcutol P (cosolvent), 25 °C, organic solvent or mixture, cosolvent Transcutol P, 25 °C, read-out: APR solubility",46500 µg/mL
same,solubility at 24 h,"[1]; Tween 20 (surfactant), 25 °C, aqueous with cosolvent or surfactant or cyclodextrin, surfactant Tween 20, 25 °C, read-out: APR solubility",7820 µg/mL
same,solubility at 24 h,"[1]; Tween 60 (surfactant), 25 °C, aqueous with cosolvent or surfactant or cyclodextrin, surfactant Tween 60, 25 °C, read-out: APR solubility",5040 µg/mL
same,solubility at 24 h,"[1]; Tween 80 (surfactant), 25 °C, aqueous with cosolvent or surfactant or cyclodextrin, surfactant Tween 80, 25 °C, read-out: APR solubility",2140 µg/mL
same,solubility at 24 h,"[1]; blank SNEDDS preconcentrate, 37 °C, organic solvent or mixture, Imwitor 988:Kolliphor RH40:Transcutol P (%) 10:30:60, 37 °C, read-out: APR solubility (loading capacity of SNEDDS preconcentrate)",43100 µg/mL
same,solubility at 24 h,"[1]; blank SNEDDS preconcentrate, 37 °C, organic solvent or mixture, Imwitor 988:Kolliphor RH40:Transcutol P (%) 10:40:50, 37 °C, read-out: APR solubility (loading capacity of SNEDDS preconcentrate)",34600 µg/mL
same,solubility at 24 h,"[1]; blank SNEDDS preconcentrate, 37 °C, organic solvent or mixture, Imwitor 988:Kolliphor RH40:Transcutol P (%) 10:50:40, 37 °C, read-out: APR solubility (loading capacity of SNEDDS preconcentrate)",26900 µg/mL
same,solubility at 24 h,"[1]; blank SNEDDS preconcentrate, 37 °C, organic solvent or mixture, Imwitor 988:Kolliphor RH40:Transcutol P (%) 10:60:30, 37 °C, read-out: APR solubility (loading capacity of SNEDDS preconcentrate)",22900 µg/mL
same,solubility at 24 h,"[1]; blank SNEDDS preconcentrate, 37 °C, organic solvent or mixture, Imwitor 988:Kolliphor RH40:Transcutol P (%) 10:70:20, 37 °C, read-out: APR solubility (loading capacity of SNEDDS preconcentrate)",18800 µg/mL
same,solubility at 24 h,"[1]; blank SNEDDS preconcentrate, 37 °C, organic solvent or mixture, Imwitor 988:Kolliphor RH40:Transcutol P (%) 10:80:10, 37 °C, read-out: APR solubility (loading capacity of SNEDDS preconcentrate)",15500 µg/mL
same,solubility at 24 h,"[1]; blank SNEDDS preconcentrate, 37 °C, organic solvent or mixture, Imwitor 988:Kolliphor RH40:Transcutol P (%) 20:10:70, 37 °C, read-out: APR solubility (loading capacity of SNEDDS preconcentrate)",51000 µg/mL
same,solubility at 24 h,"[1]; blank SNEDDS preconcentrate, 37 °C, organic solvent or mixture, Imwitor 988:Kolliphor RH40:Transcutol P (%) 20:40:40, 37 °C, read-out: APR solubility (loading capacity of SNEDDS preconcentrate)",29000 µg/mL
same,solubility at 24 h,"[1]; blank SNEDDS preconcentrate, 37 °C, organic solvent or mixture, Imwitor 988:Kolliphor RH40:Transcutol P (%) 20:50:30, 37 °C, read-out: APR solubility (loading capacity of SNEDDS preconcentrate)",23500 µg/mL
same,solubility at 24 h,"[1]; blank SNEDDS preconcentrate, 37 °C, organic solvent or mixture, Imwitor 988:Kolliphor RH40:Transcutol P (%) 20:70:10, 37 °C, read-out: APR solubility (loading capacity of SNEDDS preconcentrate)",15800 µg/mL
same,solubility at 24 h,"[1]; blank SNEDDS preconcentrate, 37 °C, organic solvent or mixture, Imwitor 988:Kolliphor RH40:Transcutol P (%) 30:20:50, 37 °C, read-out: APR solubility (loading capacity of SNEDDS preconcentrate)",45100 µg/mL
same,solubility at 24 h,"[1]; blank SNEDDS preconcentrate, 37 °C, organic solvent or mixture, Imwitor 988:Kolliphor RH40:Transcutol P (%) 30:60:10, 37 °C, read-out: APR solubility (loading capacity of SNEDDS preconcentrate)",17000 µg/mL
same,solubility at 24 h,"[1]; buffer pH 1.2, 37 °C, pH 1.2, simulated gastric fluid, buffer pH 1.2, 37 °C, 24 h, read-out: APR solubility",15.6 µg/mL
same,solubility at 24 h,"[1]; buffer pH 4.5, 37 °C, pH 4.5, aqueous buffer, buffer pH 4.5, 37 °C, 24 h, read-out: APR solubility",0.79 µg/mL
same,APR solubility,"[1]; buffer pH 6.8, 37 °C, 24 h",< LOD
same,APR solubility,"[1]; buffer pH 7.4, 37 °C, 24 h",< LOD
same,solubility in acetonitrile,[2]; acetonitrile,slightly soluble
same,logP,[2]; at neutral pH,4.8
same,permeability,[2],moderate
same,solubility in ethanol,[2]; ethanol,sparingly soluble
same,solubility in isopropyl acetate,[2]; isopropyl acetate,sparingly soluble
same,pKa,[2]; ref 5,9.7
same,Biopharmaceutical Classification System (BCS) class,[2]; ref 7,Class II
same,Biopharmaceutical Classification System (BCS) class,[2]; ref 8,Class IV
same,solubility in water,[2]; water,practically insoluble
same,mean oral bioavailability,[3]; 80 mg Emend capsule,67%
same,mean oral bioavailability,[3]; 125 mg Emend capsule,59%
same,time to maximum plasma concentration (Tmax),[3]; in vivo,4 h
same,time of mean peak plasma concentration,[3]; ref 14,approximately 4 h

# Reference: paper PMC8621193, “In Vitro Evaluation of a Solid Supersaturated Self Nanoemulsifying Drug Delivery System (Super-SNEDDS) of Aprepitant for Enhanced Solubility” (Pharmaceuticals, 2021)
